Results: ChEMBL document CHEMBL1158514, “Molecular design of small organic molecules based on structural information for a conformationally constrained peptide that binds to G-CSF receptor” (Bioorg Med Chem Lett, 2010)

Molecular target: T1, Granulocyte colony-stimulating factor receptor (Homo sapiens, UniProt Q99062)
T1 sequence (Q99062 whole entry): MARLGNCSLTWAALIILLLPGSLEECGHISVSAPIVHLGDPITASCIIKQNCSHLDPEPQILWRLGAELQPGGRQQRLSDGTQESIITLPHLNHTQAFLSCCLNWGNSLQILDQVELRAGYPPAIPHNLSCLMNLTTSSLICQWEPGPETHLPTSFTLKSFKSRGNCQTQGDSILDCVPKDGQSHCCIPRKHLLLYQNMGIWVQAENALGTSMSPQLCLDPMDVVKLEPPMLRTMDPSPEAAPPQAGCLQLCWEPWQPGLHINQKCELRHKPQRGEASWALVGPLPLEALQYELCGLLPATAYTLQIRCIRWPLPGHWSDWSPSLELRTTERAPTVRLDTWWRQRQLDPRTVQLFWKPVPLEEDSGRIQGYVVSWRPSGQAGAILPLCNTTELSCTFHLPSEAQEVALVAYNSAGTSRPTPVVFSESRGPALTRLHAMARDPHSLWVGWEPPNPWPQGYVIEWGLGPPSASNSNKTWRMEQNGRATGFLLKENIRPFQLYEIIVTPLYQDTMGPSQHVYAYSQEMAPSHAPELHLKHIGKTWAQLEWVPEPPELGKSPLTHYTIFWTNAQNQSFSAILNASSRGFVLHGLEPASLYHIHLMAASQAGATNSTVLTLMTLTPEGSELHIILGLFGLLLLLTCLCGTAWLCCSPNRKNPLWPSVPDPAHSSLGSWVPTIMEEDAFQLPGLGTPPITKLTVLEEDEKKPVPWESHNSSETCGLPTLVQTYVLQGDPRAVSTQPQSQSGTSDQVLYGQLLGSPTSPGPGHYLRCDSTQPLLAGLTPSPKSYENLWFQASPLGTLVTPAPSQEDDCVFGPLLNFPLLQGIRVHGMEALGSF
Test: Binding affinity to granulocyte colony stimulating factor receptor by SPR biosensor technique; call rule not given here

CC(C)CCOc1cc(OCCCN)cc(-c2ccc(CCC(N)=O)c(CCC(=O)O)c2)c1
Kd: Not Active

CC(C)CCOc1cc(CN(CCC(=O)O)c2cccc(CCC(N)=O)c2)cc(OCCCN)c1
Kd (read-out: Kd): 47 µM

CC(C)CCOc1cc(CN(CCC(N)=O)c2cccc(CCC(=O)O)c2)cc(OCCCN)c1
Kd: Not Active

CC(C)CCOc1cc(OCCCN)cc(-c2ccc(CCC(=O)O)c(CCC(N)=O)c2)c1
Kd (read-out: Kd): 20 µM
